Experimental findings from patent publication US8168679B2, “Salts of Tramadol and Naproxen and their crystal forms in the treatment of pain” (Laboratorios del Dr. Esteve, S.A., priority 2007, dated 2012) are described below.

A short description of data set [1]: Determination of the hygroscopicity of the crystalline salts (weight variation and Karl Fischer in humidity chamber). Format: physicochemical. Particulars: for KF (t = 0): Karl Fischer value at the beginning of the study; for KF (t = 6 days): Karl Fischer value at the end of the study, 6 days in humidity chamber; for hygroscopicity according to the scale: class by % incorporation of water; for Δ % weigth 24 h / Δ % weigth 48 h / Δ % weigth 6 days: humidity chamber, 64% relative humidity, 25±2° C. The source says:
The objective was to measure the hygroscopicity of the salts of the present invention, and comparing it with the one of the known salt of each counter part of the salts. The increasing of the weight will be measured in order to evaluate the incorporation of water in the samples, together with the Karl Fischer factor.
According to “Technical guide for the elaboration of monographs” special issue PharmaEuropa, 3rd ed., December 1999, the hygroscopicity is defined based on the augmentation of weight after 24 hours of exposition to 80% of relative humidity at 25° C. The scale is the following:
Methods: • Preparation of the Humidity chamber: A supersaturated solution of sodium nitrite (45 g/50 ml) is prepared and introduced in a humidification chamber (samplaterecord). The chamber is maintained at a temperature of 25±2° C. during 24 hours before use, and humidity is controlled each day. […] 102.2 mg of sodium naproxen. • The samples are introduced in the conditioned humidity chamber, and the weight is controlled after 24 hours, 48 hours, and 6 days, till an equilibrium is reached (2 successive control with a variation of weight less than 0.2 mg). • The Karl Fischer is also determined (using a Methrom 756 KF) at the beginning and at the end of the study.
The variation of the weight is controlled and the following percentage is calculated: Δ% weigth=(Pn−P1)/P1×100 wherein: P1 is the initial weight, Pn is the weight measured for the sample.

Data set [2] relates to TNBS-induced colonic hypersensitivity. Description: TNBS-induced colonic hypersensitivity (visceral pain model, colonic distension). Format: in vivo, Male Sprague-Dawley rats. Particulars: rats, day 7 after TNBS, 5 mg/kg orally, FIG. 12.
Experimental: The effect of the salts of the present invention on pain is measured in a model of visceral pain well known in the art: the TNBS-induced colonic hypersensitivity. In this model, the injection of trinitrobenzene sulfonic acid (TNBS) into the proximal colon provoke chronic colonic hypersensitivity, measured in conscious rats by a decreased pain threshold in response to colonic distension.
The animals are Male Sprague-Dawley rats (360-400 g, France). They were housed in a temperature (19.5° C. 24.5° C.) and relative humidity (45%-65%) controlled room with a 12 h—light/dark cycle, with ad libitum access to standard pelleted laboratory chow and water throughout the study.
Fasted (24 hours) animals were undergoing surgery for administration of TNBS (50 mg/kg) into the proximal part of the colon. […]
Day 7 after TNBS injection: Compounds were administered and the colonic hypersensitivity due to TNBS-induced colonic inflammation was measured before the treatment, and at t=20, 45, 90 and 120 min after treatment. […]
The 95% confidence intervals of each of the arithmetic means were also calculated.
Statistical significance between the treated groups and the vehicle-treated group was determined by a two-way repeated measures ANOVA followed, when F-value is significant, by an appropriate post-hoc comparison (Bonferroni's test) using SigmaStat software.

Where a name gives a salt, the structure may show the parent alone.

Take `COc1ccc2cc([C@H](C)C(=O)[O-])ccc2c1.[Na+]` [sodium naproxen]: in data set [1], the “KF (t = 0)” value came to 1.04, the “KF (t = 6 days)” value came out at 12.65, the “hygroscopicity according to the scale” value is reported as “hygroscopic” and the “Δ % weigth 24 h” value turned out to be 14.39%. Moreover, in data set [1], the “Δ % weigth 48 h” value is given as 14.39% and the “Δ % weigth 6 days” value turned out to be 14.3%.

Consider “(R,R)-Tramadol-(S)-Naproxene Salt [Example 2]”, for which, in data set [2] (20-120 min after treatment), the “colonic threshold (pain threshold to colonic distension)” value is “nearly recovering the same level of colonic threshold than the naive animal”. For the same molecule, in data set [2], the “anti-hypersensitive effect compared with the corresponding combination (Combo-02)” value was “superior effect”.

`COc1cccc(C2(O)CCCCC2CN(C)C)c1` (centres unmarked) [tramadol hydrochloride]: in data set [1], the “KF (t = 0)” value came to 0.45, the “KF (t = 6 days)” value is on record as 0.23, the “hygroscopicity according to the scale” value was “slightly hygroscopic” and the “Δ % weigth 24 h” value amounted to 0.19%. Moreover, in data set [1], the “Δ % weigth 48 h” value is given as 0.26% and the “Δ % weigth 6 days” value turned out to be 0.18%.
